Experiments:
pancreatic β cells = test: Test Example 9: pancreatic β cells and insulin in transgenic zebrafish embryos; assay type: in vivo; conditions: vs control
Description: Transgenic zebrafish expressing pancreatic β-cell GFP
Transgenic zebrafish embryos expressing pancreatic β-cell GFP at 10 hours after fertilization were held with the dorsal side of the head up on a coffin, and a glass capillary was inserted from the dorsal side into a gap just below the midline neural tube at about 2 times the distance between the rostral end and the ear vesicles to the caudal side (pancreatic primordium). A nitrogen gas pressure (15 picosiemens) was applied for 15 to 45 milliseconds, and the test compound was injected. The concentration of the test compound was 100 nM/E3, and 0.025% (final concentration) phenol red was mixed as a tracer of the infusion solution. The injection was performed in pulses with a foot pedal and continued until phenol red was distributed in an elliptical shape with a major axis of 200 μm from the insertion point.
The test compound (100 nM) was injected on a coffin in transgenic zebrafish embryos expressing pancreatic β-cell GFP at 10 hours after fertilization. After injection, embryos were cultured in E3 at 28.5° C. for 14 hours. After chorions were removed with tweezers, the embryos were fixed with 4% paraformaldehyde/PBS at room temperature for 1 hour, and in situ hybridization was performed overnight at 65° C. in the presence of a DIG probe of insulin (ins) according to a conventional method. After washing, β cells were stained by an alkali phosphatase color reaction using an anti-DIG antibody. After staining, the embryos were washed with PBS, embedded in 75% glycerin/PBS and localized, and then microscopically photographed with incident light. The number of test individuals was unified with n=100 for each test compound (FIG. 23).
Transgenic zebrafish embryos expressing pancreatic β-cell GFP at 10 hours after fertilization were injected with the test compound (100 nM or 5 nM) on the coffin. After injection, embryos were cultured in E3 at 28.5° C. for 20 hours in the presence of 0.2 mM phenylthiourea (PTU). After chorions were removed with tweezers, the embryos were fixed with 4% paraformaldehyde/PBS at normal temperature for 1 hour, immunohistochemically reacted with an anti-insulin antibody according to a conventional method, and then reacted with an Alexa fluor 488 anti-mouse IgG secondary antibody. The reacted embryos were washed with PBS, embedded in 75% glycerin/PBS and localized, and then microscopically photographed with 488 nm excitation light (FIG. 24). The number of tested individuals was unified with n=10 for each compound. The insulin amount was quantified by measuring the average fluorescence intensity in a circle with a radius of 100 μm centered on the fluorescence point (FIG. 25).

[1] = tested on: sox1α, sox2, sox3, and her6; test: Test Example 1: quantitative PCR of neural stem cell markers in brains of treated zebrafish; assay type: in vivo; conditions: brain of treated zebrafish individuals; ΔΔCt; vs control
Description: Moreover, the brains of the treated zebrafish individuals were dissected and washed with sterile distilled water, and then crushed by pipetting or 1 ml syringe suction discharge with 18 G to 24 G needles in 500 μl of Sepasol-RNA I Super G (Nacalai Tesque). A deproteinization operation was conducted once by equivalent phenol/chloroform treatment and once by chloroform treatment, and the supernatant was subjected to RNA purification using an RNA purification column (RNeasy Plus Mini Kit, Qiagen). The elute was reverse-transcribed using a mixed primer of random hexamer and oligo-dT (ReverTra Ace qPCR Kit, TOYOBO) at 37° C. for 15 minutes and 98° C. for 5 minutes, and quantitative PCR of expression levels of sox1α, sox2, sox3, and her6, which are markers of neural stem cells, was performed. Quantitative PCR was performed with SYBER Green Realtime PCR Master Mix (TOYOBO). For the PCR reaction, ABI PRISM 7700 or LightCycler from Roche Diagnostics K.K. was used. Quantification was performed in 3 wells per identical sample (n=3). The obtained data was comparatively quantified by a ΔΔCt method using a normalizer (β-actin, GAPDH, 18S, or the like). In order to confirm that the quantitative reaction was reliable, it was confirmed that the amplification product was in a band by agarose electrophoresis.

Purkinje cells = test: Test Example 6: increase in Purkinje cells of adult mouse after injection into E11.5 fetal ventricle; assay type: in vivo; conditions: test compounds = Compounds 1 to 7; 100 μM injected into E11.5 fetal ventricle, counted in adult mice; vs control; N=10
Description: A solution prepared by dissolving 100 μM of the test compound in physiological saline was injected into E11.5 mouse fetal ventricle. Brains of adult mouse individuals were fixed, and slice sections of cerebellar Purkinje cell layers were immunostained with an anti-d-Calbindin antibody, which is a marker of cell bodies and neurites of Purkinje cells. After staining, the number of Purkinje cells was counted, and the average value thereof was calculated.
As a control experiment (control), a similar experiment was performed using physiological saline containing no test compound.
The number of samples is 10 for each of Compounds 1 to 7 and control (N=10).

retinal ganglion cells = test: Test Example 5: regeneration induction of mouse retinal neurons by eye drop in high intraocular pressure glaucoma model; assay type: in vivo; conditions: 100 μM eye drops to both eyes three times a day; 10 days to 1 month; vs control
Description: High intraocular glaucoma model mouse (transgenic lines specifically expressing green fluorescent protein (GFP) in retinal ganglion cells)
To an adult of a high intraocular pressure glaucoma model mouse, a solution prepared by dissolving 100 μM of the test compound in 1% methyl cellulose/physiological saline was administered by instillation to both eyes at […] per a time three times a day.
As a control experiment (control), an experiment of instilling 1% methyl cellulose/physiological saline containing no test compound was also performed.

[2] = tested on: T-cell type acute lymphocytic leukemia model; test: Test Example 10: verification of anticancer effect in T-cell type acute lymphocytic leukemia model; assay type: in vivo, zebrafish
Description: T-cell type acute lymphocytic leukemia model specifically expressing GFP in vascular endothelial cells
A liquid agent prepared by adding a compound to E3 Ringer to adjust to 100 μM was microscopically injected into the body ventral main vessel of an embryo of a T cell-type acute lymphatic leukemia model individual 24 hours after fertilization. E3 Ringer was similarly microscopically injected as a control. At the time of microinjection, embryos were held on the body side up in a 3% methylcellulose/E3 Ringer/0.02% tricaine solution on a glass slide, and then a glass capillary was inserted into an abdominal main vessel running in the head-to-tail direction at the boundary between the body wall and egg yolk. Then, a nitrogen gas pressure (15 picosiemens) was applied for 30 to 45 milliseconds, and the mixture was injected into the blood vessel. At this time, 0.025% (final concentration) phenol red was mixed as a tracer of the injection solution. The amount to be injected was adjusted by applying gas pressure in a pulsed manner until a large blood vessel of the whole body became uniform and thin red due to blood flow. […]
In addition, survival rates of drug-injected individuals and control individuals were counted. […]

## CNS(=O)(=O)c1ccccc1Nc1nc(Nc2ccc(N3CCN(C)CC3)cc2OC)ncc1Cl [Compound 7, 2-[[5-Chloro-2-[2-methoxy-4-(4-methylpiperazin-1-yl)anilino]pyrimidin-4-yl]amino]-N-methylbenzenesulfonamide]
Pancreatic β cells; 100 nM injected at pancreatic primordium 10 h after fertilization, observed up to 48 h
  number of β cells (pancreatic β-cell GFP fluorescence): increased as compared with the control individual
Pancreatic β cells; 100 nM, 14 h after injection, n=100
  production amount of insulin by β cells (in situ hybridization, ins probe): significantly increased as compared with the control individual
[1]
  expression levels of sox1α, sox2, sox3, and her6 (quantitative PCR): significant increase in expression levels
Purkinje cells
  number of Purkinje cells in the cerebellar Purkinje cell layers: significantly higher than that of the control
Retinal ganglion cells
  amplification of retinal ganglion cells: amplification of retinal ganglion cells was remarkably observed
[2]; 100 μM injected into ventral main vessel at 24, 36 and 48 h after fertilization, observed at 56 h, vs control
  thickening and tumorigenesis of vascular endothelium: thickening and tumorigenesis of the endothelium were observed
[2]; leukemia model individuals injected with 100 μM, three tests, control 22.4%±4.56
  survival rate on Day 28: 55.9%±6.07

Source: US20230134859A1, “METHOD FOR SCREENING FOR, METHOD FOR PRODUCING, AND METHOD FOR DESIGNING DRUG ACTIVE INGREDIENTS” (SKY PHARMA CO., LTD., priority 2020, published 2023)
